Experimental data from ChEMBL document CHEMBL3886925, “Thieno- and furo[2,3-d]pyrimidine-2,4[1H,3H]-dione derivatives” (2016).

Target: T1, Short transient receptor potential channel 5 (Homo sapiens, UniProt Q9UL62)
T1 sequence (Q9UL62 whole entry): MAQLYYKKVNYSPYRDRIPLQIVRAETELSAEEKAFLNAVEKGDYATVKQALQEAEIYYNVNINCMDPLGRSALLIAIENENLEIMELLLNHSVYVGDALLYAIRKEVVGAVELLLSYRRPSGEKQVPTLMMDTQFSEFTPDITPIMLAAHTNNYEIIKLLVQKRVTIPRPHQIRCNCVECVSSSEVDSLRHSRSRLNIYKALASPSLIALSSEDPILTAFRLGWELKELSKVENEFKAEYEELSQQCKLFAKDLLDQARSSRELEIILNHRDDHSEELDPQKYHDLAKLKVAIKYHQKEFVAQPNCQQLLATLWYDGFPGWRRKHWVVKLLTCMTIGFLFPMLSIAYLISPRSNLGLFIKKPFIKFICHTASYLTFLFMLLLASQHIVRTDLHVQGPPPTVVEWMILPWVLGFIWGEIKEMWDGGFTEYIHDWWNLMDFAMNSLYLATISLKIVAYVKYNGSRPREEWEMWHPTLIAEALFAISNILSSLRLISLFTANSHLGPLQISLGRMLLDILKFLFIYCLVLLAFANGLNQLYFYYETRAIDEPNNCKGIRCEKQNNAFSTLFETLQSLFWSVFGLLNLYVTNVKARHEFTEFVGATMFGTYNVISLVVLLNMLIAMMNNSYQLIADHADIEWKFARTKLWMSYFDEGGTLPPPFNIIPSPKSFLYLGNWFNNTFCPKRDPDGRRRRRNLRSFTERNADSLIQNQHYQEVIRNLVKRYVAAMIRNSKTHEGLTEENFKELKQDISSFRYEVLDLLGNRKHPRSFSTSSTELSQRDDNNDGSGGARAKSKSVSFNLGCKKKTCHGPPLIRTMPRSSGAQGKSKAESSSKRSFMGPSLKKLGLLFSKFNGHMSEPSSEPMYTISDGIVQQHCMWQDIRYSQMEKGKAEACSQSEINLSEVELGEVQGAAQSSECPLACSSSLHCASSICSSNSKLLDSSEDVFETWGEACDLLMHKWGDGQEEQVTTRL
Experiment: High Throughput Screening Assay: The commercially available HEK293/TREx line (Invitrogen) was stably transfected with a TRPC5 construct and screened by conventional calcium imaging to find clones with TRPC5 expression following stimulation with 1 μg/ml tetracycline. These cells were maintained in the growth medium recommended by the manufacturer supplemented with 100 μg/ml hygromycin to promote retention of the TRPC5 construct. After growing to near confluency, cells were plated at a density of Ë¿35,000 cells/well in 384 well CellBind plates (Corning) in the presence of 1 μg/ml tetracycline, and allowed to grow for 20-30 hrs. A nearly confluent monolayer resulted. Cells were then loaded with Ca2+ dye: Fura-2/AM or Fluo4/AM was added to the wells to a final concentration of 4 μM or 0.5 μM, respectively, and incubated for 80 min or 60 min, respectively, at room temperature. Supernatant was then removed from the cells by inverting plates with a sharp flick, and 25 μl Hank's Balanced Salt Solution (HBSS; 0.185 g/l D-glucose, 0.9767 g/l MgS04 (anhydrous), 0.4 g/l KCl, 0.06 g/l KH2PO4 (anhydrous), 0.35 g/l NaHCO3, 8.0 g/l NaCl, and 0.04788 g/l Na2HPO4 (anhydrous); pH 7.4) was then added to each well. […]

IC50 | SMILES
31.6 nM | Cc1c(-c2cccc(Cl)c2Cl)sc2c1c(=O)n(CCCO)c(=O)n2C
194 nM | Cn1c(=O)n(CCCO)c(=O)c2c(C(O)c3ccc(Cl)cc3)c(Oc3cccc(OC(F)(F)F)c3)sc21 (configuration not stated)
